{"source": "patent US11672815B2", "about": "“Composition for inhibiting immune cell proliferation comprising sialyllactose or derivative thereof and method thereof” (CUPIONE CO., LTD., priority 2017, dated 2023)", "key": {"[1]": {"system": "atopic dermatitis mouse model", "experiment": "Atopic dermatitis mouse model, oral administration", "type": "in vivo", "details": "100 mg/kg or 500 mg/kg oral", "method": "In order to examine inhibitory effect of 3′-sialyllactose on atopic dermatitis, ear thickness of atopic dermatitis mouse model was examined at 28 days after oral administration of 100 mg/kg or 500 mg/kg of 3′-sialyllactose. Further, the left ear skin of the mouse was cut into thin sections, stained with hematoxylin and eosin (H&E), and stained with toluidine blue."}, "[2]": {"system": "Sox-9", "experiment": "Sox-9 reporter gene luciferase activity in chondrocytes", "type": "cell-based, mouse", "details": "co-treated with 5 ng/ml IL-1β and 0 to 250 μM for 24 hrs", "method": "A Sox-9 reporter gene was prepared by inserting 48-bp Sox9 binding site in the first intron of human Col2a1 gene into the upstream of SV40 promoter in pGL3 vector (Zhou G et al., J Biol Chem 1998, 12, 14989-97).\n1 μg of the Sox-9 reporter gene was transfected into chondrocytes using lipofectamine 2000 (Invitrogen) for 3 hrs. The transfected cells were co-treated with 5 ng/ml interleukin 1 beta (IL-1β) and 0 μM, 10 μM, 50 μM, 100 μM, or 250 μM of 3′- or 6′-sialyllactose for 24 hrs, and then chondrocytes were recovered to examine Sox-9 activity by luciferase activity."}, "[3]": {"system": "type II collagen (Col2a1)", "experiment": "Col2a1 expression in chondrocytes (qRT-PCR, Western blotting)", "type": "cell-based, mouse", "method": "In order to examine effects of 3′- or 6′-sialyllactose on cartilage formation and regeneration, the chondrocytes obtained in Example 1 were incubated for 36 hrs and then treated with 3′- or 6′-sialyllactose at a concentration of 0 μM, 10 μM, 50 μM, 100 μM, or 250 μM, followed by further incubation for 36 hrs.\nNext, in order to perform qRT-PCR, RNA was extracted from the chondrocytes using a TRI reagent (Molecular Research Center Inc.), and cDNA obtained by reverse transcription of RNA was amplified by PCR using primers of SEQ ID NOS: 1 and 2 under condition of annealing temperature of 55° C. to examine expression of type II collagen (Col2a1, 173 bp) which is essential for cartilage formation. As a control group, Gapdh (450 bp, annealing temperature of 58° C.) was examined by using primers of SEQ ID NOS: 3 and 4.\nFurther, a whole cell lysate was extracted from the chondrocytes using a lysis buffer (150 mM NaCl, 1% NP-40, 50 mM Tris, 5 mM NaF) containing protease and phosphatase inhibitor cocktails (Roche), and Col2a1 expression in the cells was examined. Western blotting was performed using anti-Col2a1 antibody (Millipore) and anti-Erk antibody (Cell signaling), and thickness and concentration of Western blot bands were measured by a computer program and relative values thereof were determined by densitometry (FIGS. 4A and 4B).\nIL-1β is a representative inflammatory cytokine inhibiting Col2a1 expression in chondrocytes. Chondrocytes were incubated for 36 hrs, and then treated with 5 ng/ml of IL-1β (GeneScript, USA) for 24 hrs to confirm that Col2a1 expression was decreased by IL-1β.\nIn order to examine whether the decreased Col2a1 expression is increased again in chondrocytes by 3′- or 6′-sialyllactose, qRT-PCR and Western blotting were performed in the same manner as in Example 2-1."}, "[4]": {"system": "mouse models with rheumatoid arthritis", "experiment": "Therapeutic effect in mice with arthritis", "type": "in vivo", "details": "500 mg/kg oral every other day for 2 weeks", "method": "Next, in order to examine therapeutic effects of 3′-sialyllactose, mice with arthritis were orally administered with 3′-sialyllactose. In detail, 8-week-old DBA mice were immunized day 0 and day 21, and then orally administered with 500 mg/kg of 3′-sialyllactose every other days for 2 weeks. Control groups were administered with lactose (250 mg/kg), sialic acid (250 mg/kg), or MTX (1 mg/kg)."}, "[5]": {"system": "extracellular-signal regulated kinase (Erk)", "experiment": "Erk phosphorylation in IL-1β-treated chondrocytes (Western blotting, densitometry)", "type": "cell-based, mouse", "details": "5 ng/ml of IL-1β, 0 μM, 50 μM, 100 μM, or 250 μM", "method": "Chondrocytes of mouse knee joint were treated with 5 ng/ml of IL-1β for 10 min to examine activation of extracellular-signal regulated kinase (Erk) through Erk phosphorylation.\nChondrocytes were co-treated with 5 ng/ml of IL-1β and 0 μM, 50 μM, 100 μM, or 250 μM of 3′-sialyllactose, and Erk phosphorylation increased by IL-1β was confirmed to be decreased by 3′-sialyllactose (FIG. 8)."}}}
{"smiles": "CC(=O)N[C@H]1C([C@H](O)[C@H](O)CO)O[C@@](O[C@@H]2C(O)[C@H](O[C@@H]3C(CO)OC(O)C(O)[C@H]3O)OC(CO)[C@@H]2O)(C(=O)[O-])C[C@H]1O.[Na+]", "note": "(stereo partly shown) [3′-sialyllactose]", "values": [{"measurement": "mouse ear thickness", "setting": "[1]; 28 days", "result": "decreased"}, {"measurement": "ear dermal thickness", "setting": "[1]; concentration-dependent", "result": "decreased"}, {"measurement": "ear epidermal thickness", "setting": "[1]; concentration-dependent", "result": "decreased"}, {"measurement": "number of mast cells in the ear skin (toluidine blue staining)", "setting": "[1]; concentration-dependent", "result": "decreased"}, {"measurement": "Sox-9 activity decreased by IL-1β", "setting": "[2]", "result": "restored"}, {"measurement": "Col2a1 expression in chondrocytes", "setting": "[3]; 0 to 250 μM, 36 hrs", "result": "increased"}, {"measurement": "Col2a1 expression suppressed by IL-1β in chondrocytes", "setting": "[3]; 5 ng/ml of IL-1β", "result": "gradually increased"}, {"measurement": "expression of pro-inflammatory cytokines (mouse sera)", "setting": "[4]", "result": "decreased"}, {"measurement": "swelling", "setting": "[4]", "result": "alleviated"}, {"measurement": "Erk phosphorylation increased by IL-1β", "setting": "[5]", "result": "decreased"}]}
